In ChEMBL document CHEMBL1149046, “Insect Inhibitory Steroidal Saccharide Esters from Physalis peruviana” (J Nat Prod, 1994):

Columns and labels:
Type in all cases: organism-based
Conditions in all cases: artemia, in vivo
[1] = Toxicity in brine shrimp at 1000 ppm
[2] = Toxicity in brine shrimp at 500 ppm
[3] = Toxicity in brine shrimp at 250 ppm

CC(=O)OC[C@H]1O[C@@H](OC(=O)/C(C)=C(\C)C[C@@H](O)[C@@H](C)[C@H]2CC[C@H]3[C@@H]4CC=C5C[C@@H](O)C[C@H](O)[C@]5(C)[C@H]4[C@@H](O)C[C@]23C)[C@H](O[C@@H]2O[C@H](CO)[C@@H](O)[C@H](O)[C@H]2O)[C@@H](O)[C@@H]1O
100%: survival at 1000 ppm [1] | survival at 500 ppm [2] | survival at 250 ppm [3]

C/C(C[C@@H](O)[C@@H](C)[C@H]1CC[C@H]2[C@@H]3CC=C4C[C@@H](O)C[C@H](O)[C@]4(C)[C@H]3[C@@H](O)C[C@]12C)=C(/C)C(=O)O[C@@H]1O[C@H](CO)[C@@H](O)[C@H](O)[C@H]1O
100%: survival at 1000 ppm [1] | survival at 500 ppm [2] | survival at 250 ppm [3]

CC(=O)OC[C@H]1O[C@@H](OC(=O)/C(C)=C(\C)C[C@@H](O)[C@@H](C)[C@H]2CC[C@H]3[C@@H]4CC=C5C[C@@H](O[C@@H]6O[C@H](CO)[C@@H](O)[C@H](O)[C@H]6O)C[C@H](O)[C@]5(C)[C@H]4CC[C@]23C)[C@H](O[C@@H]2O[C@H](COC(C)=O)[C@@H](O[C@@H]3O[C@H](CO)[C@@H](O)[C@H](O)[C@H]3O)[C@H](O)[C@H]2O)[C@@H](O)[C@@H]1O
100%: survival at 1000 ppm [1] | survival at 500 ppm [2] | survival at 250 ppm [3]

CC(=O)OC[C@H]1O[C@@H](OC(=O)/C(C)=C(\C)C[C@@H](O)[C@@H](C)[C@H]2CC[C@H]3[C@@H]4CC=C5C[C@@H](O[C@@H]6O[C@H](CO)[C@@H](O)[C@H](O)[C@H]6O)C[C@H](O)[C@]5(C)[C@H]4CC[C@]23C)[C@H](O[C@@H]2O[C@H](CO)[C@@H](O[C@@H]3O[C@H](CO)[C@@H](O)[C@H](O)[C@H]3O)[C@H](O)[C@H]2O)[C@@H](O)[C@@H]1O
100%: survival at 1000 ppm [1] | survival at 500 ppm [2] | survival at 250 ppm [3]

CC(=O)OC[C@H]1O[C@@H](OC(=O)/C(C)=C(\C)C[C@@H](O)[C@@H](C)[C@H]2CC[C@H]3[C@@H]4CC=C5C[C@@H](O[C@@H]6O[C@H](CO)[C@@H](O)[C@H](O)[C@H]6O)C[C@H](O)[C@]5(C)[C@H]4CC[C@]23C)[C@H](O[C@@H]2O[C@H](CO)[C@@H](O)[C@H](O)[C@H]2O)[C@@H](O)[C@@H]1O
100%: survival at 1000 ppm [1] | survival at 500 ppm [2] | survival at 250 ppm [3]

C/C(C[C@@H](O)[C@@H](C)[C@H]1CC[C@H]2[C@@H]3CC=C4C[C@@H](O[C@@H]5O[C@H](CO)[C@@H](O)[C@H](O)[C@H]5O)C[C@H](O)[C@]4(C)[C@H]3CC[C@]12C)=C(/C)C(=O)O[C@@H]1O[C@H](CO)[C@@H](O)[C@H](O)[C@H]1O[C@@H]1O[C@H](CO)[C@@H](O)[C@H](O)[C@H]1O
100%: survival at 1000 ppm [1] | survival at 500 ppm [2] | survival at 250 ppm [3]
